Where two headings read alike, the source gives them in different places.
Tests used:
[1] = system: BCRP-gene-transfected human colon cancer HCT116 cells (HCT116/BCRP cells); assay: Effect of overcoming anticancer agent resistance in vivo (oral administration), HCT116/BCRP xenograft with CPT-11; set-up: species or system BALB/c male nude mice
Procedure: To an inguinal region of each of 6-week-old BALB/c male nude mice (5 mice/group), BCRP-gene-transfected human colon cancer HCT116 cells (HCT116/BCRP cells) (obtained from Dr. Yoshikazu Sugimoto, The Cancer Chemotherapy Center of Japanese Foundation for Cancer Research) were subcutaneously transplanted (2×10^6 cells/0.1 mL/mouse). When the tumor volume as estimated from (1/2)ab^2 (a: longer tumor diameter, b: shorter tumor diameter) reached about 100 to 150 mm^3, each of the compounds of the present invention shown in Tables 1 to 4 and a positive control compound (i.e., Compound 14 ((Z)-2-(3,4-dimethoxy-phenyl)-3-{5-[4-(2-hydroxy-ethyl)-piperazin-1-yl]-thiophen-2-yl}-acrylonitrile hydrochloride)), disclosed in Patent Document 3 (WO 2006/106778)) (hereinafter referred to as Earlier Application Compound 14) was orally administered once a day for nine days (9 times in total). […] The dose of each of the compounds of the present invention was adjusted to 0.20 or 0.40 mmol/kg/day, and that of the positive control compound was adjusted to 0.23 or 0.46 mmol/kg/day. For administration, Compound 3 or 5 of the present invention was dissolved in 5% glucose solution, and Compound 4 or 6 was dissolved in Britton-Robinson buffer. […] A solvent was solely administered to a control group. On day 21 from start of administration, a tumor was extirpated from each mouse and weighed, and the tumor growth inhibition ratio IR (%) was derived from the following equation:
Tumor growth inhibition ratio IR (%)=(1−average tumor weight of each administration group/average tumor weight of control group)×100.

[2] = Solubility (HPLC quantification of supernatant); type: physicochemical; conditions: saline or isotonic, thermodynamic from solid; physiological saline, room temperature
[3] = Solubility (HPLC quantification of supernatant); type: physicochemical; conditions: thermodynamic from solid, room temperature, stirred about 30 minutes, 100 mg/mL charged
Procedure: Each (10 mg) of the compounds of the present invention and Earlier Application Compound 14 shown in Table 5 was weighed and placed in a sealable container, and water or 5% glucose solution was added to the container in such an amount as to adjust the final concentration to 100 mg/mL. The contents of the container were stirred at room temperature for about 30 minutes, followed by centrifugation. The compound concentration of the supernatant recovered through centrifugation was quantified through high-performance liquid chromatography.

[4] = compound 0.20 mmol/kg/day oral once a day for nine days + CPT-11 45 mg/kg/day i.v. day 1, 5, 9, day 21, vs control group
[5] = compound 0.20 mmol/kg/day oral once a day for nine days + CPT-11 45 mg/kg/day i.v. day 1, 5, 9, tumor weighed day 21
[6] = compound 0.40 mmol/kg/day oral once a day for nine days + CPT-11 45 mg/kg/day i.v. day 1, 5, 9, day 21, vs control group
[7] = compound 0.40 mmol/kg/day oral once a day for nine days + CPT-11 45 mg/kg/day i.v. day 1, 5, 9, tumor weighed day 21
[8] = saline or isotonic, 5% glucose solution, read-out: Solubility in 5% glucose
[9] = water, read-out: Solubility in water
[10] = positive control 100 mg/kg/day (0.23 mmol/kg/day) oral for nine days + CPT-11 45 mg/kg/day i.v. day 1, 5, 9, day 21
[11] = positive control 200 mg/kg/day (0.46 mmol/kg/day) oral for nine days + CPT-11 45 mg/kg/day i.v. day 1, 5, 9, day 21

Structure (SMILES) | Tumor growth inhibition ratio IR (%) [1, 4] [%] | Tumor weight (g) Mean ± S.D. [1, 5] [g] | Tumor growth inhibition ratio IR (%) [1, 6] [%] | Tumor weight (g) Mean ± S.D. [1, 7] [g] | solubility [2] [mg/mL] | solubility [3, 8] [mg/mL] | solubility [3, 9] [mg/mL] | other results
COc1ccc(/C(C#N)=C/c2ccc(N3CCC(OC(=O)CN4CCCCC4)CC3)s2)cc1OC.Cl [Compound 3, piperidin-1-yl-acetic acid 1-[5-[(Z)-2-cyano-2-(3,4-dimethoxy-phenyl)-vinyl]-thiophen-2-yl]-piperidin-4-yl ester hydrochloride] | 51.9 | 0.73 ± 0.07 | 54.7 | 0.65 ± 0.11 | – | – | – | –
COc1ccc(/C(C#N)=C/c2ccc(N3CCC(OC(=O)CN4CCC(O)CC4)CC3)s2)cc1OC.Cl [Compound 4, (4-hydroxy-piperidin-1-yl)-acetic acid 1-[5-[(Z)-2-cyano-2-(3,4-dimethoxy-phenyl)-vinyl]-thiophen-2-yl]-piperidin-4-yl ester hydrochloride] | 31.8 | 0.89 ± 0.09 | 46.4 | 0.70 ± 0.11 | – | – | – | –
COc1ccc(/C(C#N)=C/c2ccc(N3CCC(OC(=O)CN4CCCCC4)CC3)s2)cc1OC.CS(=O)(=O)O [Compound 5, piperidin-1-yl-acetic acid 1-[5-[(Z)-2-cyano-2-(3,4-dimethoxy-phenyl)-vinyl]-thiophen-2-yl]-piperidin-4-yl ester methanesulfonate] | 50.9 | 0.73 ± 0.12 | 55.9 | 0.65 ± 0.16 | 100 | ≥ 100 | ≥ 100 | –
COc1ccc(/C(C#N)=C/c2ccc(N3CCC(OC(=O)CN4CCC(O)CC4)CC3)s2)cc1OC.CS(=O)(=O)O [Compound 6, (4-hydroxy-piperidin-1-yl)-acetic acid 1-[5-[(Z)-2-cyano-2-(3,4-dimethoxy-phenyl)-vinyl]-thiophen-2-yl]-piperidin-4-yl ester methanesulfonate] | 36.9 | 0.82 ± 0.04 | 41.8 | 0.76 ± 0.09 | – | – | – | –
COc1ccc(/C(C#N)=C/c2ccc(N3CCC(OC(=O)CN4CCC4)CC3)s2)cc1OC.CS(=O)(=O)O [Compound 8, azetidin-1-yl-acetic acid 1-[5-[(Z)-2-cyano-2-(3,4-dimethoxy-phenyl)-vinyl]-thiophen-2-yl]-piperidin-4-yl ester methanesulfonate] | – | – | – | – | – | ≥ 100 | ≥ 100 | –
COc1ccc(/C(C#N)=C/c2ccc(N3CCC(OC(=O)CN4CCCC4)CC3)s2)cc1OC.CS(=O)(=O)O [Compound 10, pyrrolidin-1-yl-acetic acid 1-[5-[(Z)-2-cyano-2-(3,4-dimethoxy-phenyl)-vinyl]-thiophen-2-yl]-piperidin-4-yl ester methanesulfonate] | – | – | – | – | – | ≥ 100 | ≥ 100 | –
COc1ccc(/C(C#N)=C/c2ccc(N3CCC(OC(=O)CN4CCCCC4C)CC3)s2)cc1OC.CS(=O)(=O)O (stereo not drawn) [Compound 12, (2-methyl-piperidin-1-yl)-acetic acid 1-[5-[(Z)-2-cyano-2-(3,4-dimethoxy-phenyl)-vinyl]-thiophen-2-yl]-piperidin-4-yl ester methanesulfonate] | – | – | – | – | 100 | ≥ 100 | ≥ 100 | –
COc1ccc(/C(C#N)=C/c2ccc(N3CCC(OC(=O)CN4CCCC(CO)C4)CC3)s2)cc1OC.CS(=O)(=O)O (stereo not drawn) [Compound 14, (3-hydroxymethyl-piperidin-1-yl)-acetic acid 1-[5-[(Z)-2-cyano-2-(3,4-dimethoxy-phenyl)-vinyl]-thiophen-2-yl]-piperidin-4-yl ester methanesulfonate] | – | – | – | – | 100 | ≥ 100 | ≥ 100 | –
COc1ccc(/C(C#N)=C/c2ccc(N3CCC(OC(=O)CN4CCCCCC4)CC3)s2)cc1OC.CS(=O)(=O)O [Compound 16, azepan-1-yl-acetic acid 1-[5-[(Z)-2-cyano-2-(3,4-dimethoxy-phenyl)-vinyl]-thiophen-2-yl]-piperidin-4-yl ester methanesulfonate] | – | – | – | – | – | ≥ 100 | ≥ 100 | –
COc1ccc(/C(C#N)=C/c2ccc(N3CCC(OC(=O)CN4CCCCCCC4)CC3)s2)cc1OC.CS(=O)(=O)O [Compound 18, azocan-1-yl-acetic acid 1-[5-[(Z)-2-cyano-2-(3,4-dimethoxy-phenyl)-vinyl]-thiophen-2-yl]-piperidin-4-yl ester methanesulfonate] | – | – | – | – | – | ≥ 100 | ≥ 100 | –
COc1ccc(/C(C#N)=C/c2ccc(N3CCC(OC(=O)CN4CCN(C)CC4)CC3)s2)cc1OC.CS(=O)(=O)O [Compound 20, (4-methyl-piperazin-1-yl)-acetic acid 1-[5-[(Z)-2-cyano-2-(3,4-dimethoxy-phenyl)-vinyl]-thiophen-2-yl]-piperidin-4-yl ester methanesulfonate] | – | – | – | – | 100 | ≥ 100 | ≥ 100 | –
COc1ccc(/C(C#N)=C/c2ccc(N3CCC(OC(=O)CN4CCOCC4)CC3)s2)cc1OC.CS(=O)(=O)O [Compound 22, morpholin-4-yl-acetic acid 1-[5-[(Z)-2-cyano-2-(3,4-dimethoxy-phenyl)-vinyl]-thiophen-2-yl]-piperidin-4-yl ester methanesulfonate] | – | – | – | – | – | ≥ 100 | ≥ 100 | –
COc1ccc(/C(C#N)=C/c2ccc(N3CCN(CCO)CC3)s2)cc1OC.Cl [EAC 14, (Z)-2-(3,4-dimethoxy-phenyl)-3-{5-[4-(2-hydroxy-ethyl)-piperazin-1-yl]-thiophen-2-yl}-acrylonitrile hydrochloride, reference compound] | – | – | – | – | < 1 | 6.6 | 6.6 | Tumor growth inhibition ratio IR (%) [1, 10]: 23.9%; Tumor weight (g) Mean ± S.D. [1, 10]: 1.04 ± 0.17 g; Tumor growth inhibition ratio IR (%) [1, 11]: 35.6%; Tumor weight (g) Mean ± S.D. [1, 11]: 0.88 ± 0.14 g

Reference: US20100249089A1, “ABCG2 INHIBITOR” (KABUSHIKI KAISHA YAKULT HONSHA, priority 2007, published 2010)
